Results as given in PubChem BioAssay (NCI).
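In this assay, cells in 96-well plates receive the compound at five concentrations for 48 hours. Endpoints are linearly interpolated between the surrounding concentrations. Here, GI50 denotes the concentration required for 50% inhibition of growth. TGI: concentration producing complete growth inhibition.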

Tests used:
Test in all cases: NCI tumour cell line growth inhibition, 48 h
OVCAR-4 ovarian = tested on: OVCAR-4 ovarian
SK-OV-3 ovarian = tested on: SK-OV-3 ovarian
NCI-H23 lung = tested on: NCI-H23 lung
SN12C renal = tested on: SN12C renal
CAKI-1 renal = tested on: CAKI-1 renal
HS 578T breast = tested on: HS 578T breast
NCI-H522 lung = tested on: NCI-H522 lung
U251 CNS = tested on: U251 CNS
SK-MEL-28 melanoma = tested on: SK-MEL-28 melanoma
HCT-116 colon = tested on: HCT-116 colon

Structure (SMILES) | GI50 (OVCAR-4 ovarian) [µM] | TGI (OVCAR-4 ovarian) [µM] | GI50 (SK-OV-3 ovarian) [µM] | TGI (SK-OV-3 ovarian) [µM] | GI50 (NCI-H23 lung) [µM] | TGI (NCI-H23 lung) [µM] | GI50 (SN12C renal) [µM] | TGI (SN12C renal) [µM] | GI50 (CAKI-1 renal) [µM] | TGI (CAKI-1 renal) [µM] | GI50 (HS 578T breast) [µM] | TGI (HS 578T breast) [µM] | GI50 (NCI-H522 lung) [µM] | TGI (NCI-H522 lung) [µM] | GI50 (U251 CNS) [µM] | TGI (U251 CNS) [µM] | GI50 (SK-MEL-28 melanoma) [µM] | TGI (SK-MEL-28 melanoma) [µM] | GI50 (HCT-116 colon) [µM] | TGI (HCT-116 colon) [µM]
COc1c(B(O)O)cccc1-c1nc2ccc3[nH]ncc3c2c2c1CCCC2 | 4.23 | 27.1 | 1.19 | 10.4 | 2.48 | 9.28 | 1.77 | 42.7 | 0.0171 | 0.252 | 0.0622 | 7.92 | 1.41 | 10.5 | 2.69 | 18.5 | 3.42 | 10.2 | 0.473 | > 96.7
O=C1C(Cl)=C(Nc2cc(Cl)ccc2O)C(=O)N1Cc1ccccc1 | 17.2 | 38.1 | 19.7 | 43.3 | 16.6 | 31.5 | 19.5 | 34.4 | 18.3 | 40.9 | 21.7 | 49.6 | 15.1 | 30.5 | 15.8 | 29.6 | 16.1 | 34.2 | 19.4 | 35.6
Cc1nc2sc(C(=O)Nc3ccccc3)c(N)c2cc1C(O)c1ccccc1 (centres undefined) | 0.833 | > 100 | 0.523 | 38.5 | 0.664 | > 100 | 0.46 | > 100 | 0.243 | > 100 | 0.325 | > 35.1 | 0.304 | > 24.1 | 0.292 | > 100 | 10.8 | > 100 | 0.255 | 12.8
O=C(CSC(c1ccccc1)c1ccccc1)N/N=C/c1ccccc1Cl | 11.3 | 77.2 | > 100 | > 100 | 12.8 | 61.6 | 2.66 | 11.8 | 37.7 | > 100 | 9.64 | > 56.9 | 30.2 | > 100 | 25.8 | > 58.4 | 46.1 | > 100 | 14 | > 54.6
CC(C)c1[nH]nc2c(NCc3ccc(-c4ccccn4)cc3)nc(SCCN(C)C)nc12 | 0.0349 | 1.53 | 0.106 | 11.5 | 0.0646 | 0.598 | < 0.0199 | 12.3 | 0.37 | 19.4 | 0.0271 | 9.4 | < 0.015 | < 0.0232 | 0.0474 | 10.7 | 0.0226 | 0.21 | 0.0357 | 10.8
O=C(N=Nc1c(Cl)c(O)c2ccccc2c1O)C(=O)Nc1cccc(C(F)(F)F)c1 | 6.03 | 26.9 | 12.9 | 26.7 | 2.67 | 10.2 | 1.77 | 3.79 | 8.66 | 23.7 | 2.6 | 8.6 | 2.82 | 10.9 | 3.05 | 10.9 | 10.4 | 23.3 | 1.83 | 3.88
Cc1ccc(-c2c3c(nn2-c2ccc(S(=O)(=O)NC(=O)NC4CCCCC4)cc2)-c2ccccc2C3)cc1 | 18.2 | 39.7 | 18.9 | 42.4 | 10.9 | 27.1 | 19.4 | 35.6 | 18 | 41.8 | 20.5 | 60.4 | 12 | 28.9 | 12.3 | 26.9 | 18.3 | 37.5 | 3.3 | 15.9
CCC[n+]1cc2cc3c(cc2c2c1-c1cc4c(cc1C2)OCO4)OCO3 (tested in a mixture with another compound) | 0.853 | 5.9 | 3.57 | 16.4 | 0.679 | 3.02 | 0.0664 | 0.777 | 25.8 | > 91.8 | 0.437 | 3.53 |  | 2.08 | 0.229 | 3.32 | 0.783 | 2.49 | 0.758 | 11.3
COC(=O)c1c2c(c(C)[n+]([O-])c1C)C(=O)C(NCc1ccc(F)cc1)=CC2=O | 0.519 | 1.87 | 2.92 | 9.11 | 1.33 | 3.79 | 1.17 | 2.62 | 2.06 | 6 | 2.47 | 8.03 | 1.7 | 4.02 | 1.81 | 5.14 | 3.2 | 15.6 | 0.957 | 6.28
CN(C)c1cc2c(Nc3ccc4c(cnn4Cc4ccccc4)c3)ncnc2cn1 | 14.2 | > 25 | 0.104 | > 25 | 9.52 | > 25 | 12.1 | > 25 | 0.299 | > 21.5 | 16.6 | > 25 | 1.82 | > 25 | 7.8 | 24.4 | 20 | > 25 | 9.23 | > 25
Cc1c(NC(=O)Nc2c(Cl)cccc2Cl)c(=O)n(-c2ccccc2)n1C |  | > 100 |  | > 100 |  | > 100 |  | > 100 |  | > 100 |  | > 100 |  | > 100 |  | > 100 |  | > 100 |  | > 100
O=C(NCc1ccco1)C1CCN(S(=O)(=O)c2ccc(Cl)cc2)CC1 | 54.9 | > 100 | > 100 | > 100 | > 100 | > 100 | > 100 | > 100 | > 100 | > 100 | > 100 | > 100 | 90.5 | > 100 | > 100 | > 100 | > 100 | > 100 | 59.8 | > 100
